Measured values published in ChEMBL document CHEMBL1144779, “Identification of novel cannabinoid CB1 receptor antagonists by using virtual screening with a pharmacophore model” (J Med Chem, 2008).

Legend:
[1] = molecular target: T1, Cannabinoid receptor 1 (Homo sapiens, UniProt P21554); experiment: biochemical; format: cell-based, HEK293
Description: Displacement of [3H]CP-55940 from human CB1 receptor expressed in HEK293 cells

[2] = molecular target: T2, Cannabinoid receptor 2 (Homo sapiens, UniProt P34972); experiment: Displacement of [3H]CP-55940 from human CB2 receptor expressed in CHO cells; format: cell-based
T2 sequence (P34972 whole entry): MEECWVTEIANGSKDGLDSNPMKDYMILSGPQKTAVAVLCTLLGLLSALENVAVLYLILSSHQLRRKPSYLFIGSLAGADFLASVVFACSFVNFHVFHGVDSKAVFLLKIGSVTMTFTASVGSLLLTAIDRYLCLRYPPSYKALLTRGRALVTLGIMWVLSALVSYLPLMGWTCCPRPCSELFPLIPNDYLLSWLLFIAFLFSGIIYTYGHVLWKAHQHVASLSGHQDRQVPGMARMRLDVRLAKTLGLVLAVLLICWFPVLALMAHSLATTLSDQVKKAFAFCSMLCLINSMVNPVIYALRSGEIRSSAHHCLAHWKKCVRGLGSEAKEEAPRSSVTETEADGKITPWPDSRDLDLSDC

[3] = molecular target: T2, Cannabinoid receptor 2; experiment: Binding affinity to CB2 receptor
[4] = species: Homo sapiens; experiment: Selectivity for human CB1 receptor over human CB2 receptor
[5] = molecular target: T1, Cannabinoid receptor 1
Description: Binding affinity to CB1 receptor

T1 sequence (P21554 whole entry): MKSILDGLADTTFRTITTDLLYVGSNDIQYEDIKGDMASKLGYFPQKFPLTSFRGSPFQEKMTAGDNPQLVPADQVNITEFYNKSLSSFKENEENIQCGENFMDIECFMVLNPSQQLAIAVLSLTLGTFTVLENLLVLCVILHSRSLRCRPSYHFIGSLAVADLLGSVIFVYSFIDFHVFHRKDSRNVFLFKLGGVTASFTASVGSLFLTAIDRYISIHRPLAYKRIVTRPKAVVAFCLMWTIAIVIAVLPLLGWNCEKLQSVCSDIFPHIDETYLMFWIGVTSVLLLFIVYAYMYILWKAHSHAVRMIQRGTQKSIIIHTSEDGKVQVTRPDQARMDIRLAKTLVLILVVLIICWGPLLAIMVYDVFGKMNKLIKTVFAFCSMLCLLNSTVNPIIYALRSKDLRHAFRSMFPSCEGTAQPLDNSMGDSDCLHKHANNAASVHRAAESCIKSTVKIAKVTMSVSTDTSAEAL

| Compound | Ki [1] [nM] | Ki [2] [nM] | Ki [3] [nM] | Ratio Ki [4] | Ki [5] [nM] |
| --- | --- | --- | --- | --- | --- |
| COc1ccc(C2C(CCS(=O)(=O)c3ccccc3)C(=O)N2c2ccccc2)cc1 (stereo unspecified) | 451 | 1240 | – | – | – |
| COc1ccc([C@@H]2[C@@H](Cc3cc4ccccc4o3)C(=O)N2c2ccccc2)cc1 | 839 | 194 | – | – | – |
| COc1ccc(-c2oc3cc(OC)ccc3c2C(=O)c2ccc(C#N)cc2)cc1 | – | – | > 10000 | – | – |
| CC(=O)SC(CCc1ccccc1)[C@H]1C(=O)N(c2ccc(F)cc2)[C@@H]1c1ccc(O)cc1 (stereo partly specified) | 52.8 | 282 | – | 5 | – |
| CS(=O)(=O)C(=C1CN(C(c2ccc(Cl)cc2)c2ccc(Cl)cc2)C1)c1cc(F)cc(F)c1 | – | – | – | – | < 100 |
| O=C(NN1CCCCC1)c1nn(-c2ccc(Cl)cc2Cl)c(-c2ccc(-c3cccnc3)cc2)c1CO | – | – | 2310 | – | 5.8 |
| COc1ccc([C@@H]2[C@@H](CCCc3cccnc3)C(=O)N2c2ccccc2)cc1 | 244 | 1090 | – | – | – |
| O=C1[C@@H](CCC(O)c2ccc(F)cc2)[C@H](c2ccc(O)cc2)N1c1ccc(F)cc1 (stereo partly specified) | 301 | > 1820 | – | – | – |
| O=C(NN1CCCCC1)c1nn(-c2ccc(Cl)cc2Cl)c2c1CCCc1cc(Cl)ccc1-2 | – | – | 21 | – | – |
